In patent US10975056B2 (GlaxoSmithKline Intellectual Property Development Limited, priority 2016, dated 2021):
Like-named read-outs stand apart in the source and are kept apart here.

Tests used:
[1] = test system: erythroid progenitor cells (EPCs); assay: Fetal hemoglobin (HbF) ELISA in day 7 erythroid progenitor cells; type: cell-based, human; settings: Homo sapiens, Erythroid progenitor cell, HbF ELISA, day 7 EPCs, 5 days; read-out: EPC ELISA (pEC50 category) (converted);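 also: for fetal hemoglobin induction normalized to vehicle-treated cells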
Method in brief: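 Day 7 EPCs from human bone marrow CD34+ cells were plated at 1,000 cells/well in media with 3 U/mL rhEPO. They were exposed to a 22-point dilution ([…]) for 5 days at 37 °C. Lysate HbF was measured by sandwich ELISA (OD450) and normalized to DMSO control wells.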

human full length DNMT1 = human full length DNMT1 (Homo sapiens (Human), UniProt P26358); assay: DNMT1 breaklight assay; type: biochemical; settings: repeated experimental runs, read-out: average IC50 against DNMT1
Sequence of human full length DNMT1 (P26358 whole entry): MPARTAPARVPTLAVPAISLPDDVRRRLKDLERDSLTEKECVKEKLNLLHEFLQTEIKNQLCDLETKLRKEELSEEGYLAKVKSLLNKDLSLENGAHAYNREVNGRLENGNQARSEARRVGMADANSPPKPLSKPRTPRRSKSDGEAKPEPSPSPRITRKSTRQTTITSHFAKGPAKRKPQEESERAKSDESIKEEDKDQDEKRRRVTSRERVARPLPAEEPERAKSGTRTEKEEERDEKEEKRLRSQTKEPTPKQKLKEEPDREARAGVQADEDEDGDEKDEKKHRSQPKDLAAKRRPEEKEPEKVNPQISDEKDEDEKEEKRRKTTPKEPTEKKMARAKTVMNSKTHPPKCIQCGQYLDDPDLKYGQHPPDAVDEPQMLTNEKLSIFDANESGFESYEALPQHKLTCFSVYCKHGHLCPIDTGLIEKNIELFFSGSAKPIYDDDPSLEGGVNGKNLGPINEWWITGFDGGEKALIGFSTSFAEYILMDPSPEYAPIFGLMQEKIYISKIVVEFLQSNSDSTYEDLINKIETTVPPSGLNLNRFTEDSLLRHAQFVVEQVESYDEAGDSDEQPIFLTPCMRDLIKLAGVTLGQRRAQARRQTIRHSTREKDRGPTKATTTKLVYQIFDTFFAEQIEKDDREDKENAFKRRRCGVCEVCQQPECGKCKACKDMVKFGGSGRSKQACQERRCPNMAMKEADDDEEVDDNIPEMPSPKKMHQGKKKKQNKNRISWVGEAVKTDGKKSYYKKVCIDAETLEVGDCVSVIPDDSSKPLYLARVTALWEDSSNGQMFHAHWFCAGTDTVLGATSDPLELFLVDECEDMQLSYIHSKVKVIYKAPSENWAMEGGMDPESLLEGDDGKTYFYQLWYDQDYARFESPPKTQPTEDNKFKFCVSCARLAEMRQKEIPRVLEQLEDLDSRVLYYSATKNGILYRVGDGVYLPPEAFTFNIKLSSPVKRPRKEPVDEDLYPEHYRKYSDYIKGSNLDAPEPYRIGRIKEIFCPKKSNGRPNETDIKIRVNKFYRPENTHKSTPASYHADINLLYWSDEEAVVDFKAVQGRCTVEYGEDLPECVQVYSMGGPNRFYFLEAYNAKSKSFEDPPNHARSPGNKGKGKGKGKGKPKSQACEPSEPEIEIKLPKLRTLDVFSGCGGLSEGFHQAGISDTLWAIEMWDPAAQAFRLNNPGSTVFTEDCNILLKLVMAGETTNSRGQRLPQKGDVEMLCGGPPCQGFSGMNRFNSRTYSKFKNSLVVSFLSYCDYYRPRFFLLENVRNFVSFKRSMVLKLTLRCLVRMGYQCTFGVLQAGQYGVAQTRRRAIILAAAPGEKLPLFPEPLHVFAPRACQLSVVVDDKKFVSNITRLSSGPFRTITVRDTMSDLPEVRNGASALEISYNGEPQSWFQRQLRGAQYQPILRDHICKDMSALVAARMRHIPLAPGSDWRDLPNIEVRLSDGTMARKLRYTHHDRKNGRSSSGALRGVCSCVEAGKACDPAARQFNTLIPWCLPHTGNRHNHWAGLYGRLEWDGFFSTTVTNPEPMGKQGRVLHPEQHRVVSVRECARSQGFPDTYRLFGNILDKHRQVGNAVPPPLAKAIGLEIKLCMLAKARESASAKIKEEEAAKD
Protocol: DNMT1 breaklight in vitro assays were conducted in a total volume of 50 μl in a standard 384 well format, using black non-binding surface microplates (Corning 3575). Five μl of human full length DNMT1 (produced internally), used at a final concentration of 40 nM, was added to 5 μl of substrate mixture containing final concentrations of 125 nM hemi methylated oligonucleotide (synthesized at ATD Bio; 5′-FAM-[…]5[…]5G5TAGAT-3′ where 5=methyl deoxycitidine) and 2 μM ultrapure SAM (Cisbio #62SAHZLD). Negative control wells used 5 μl of DNMT1 and 5 μl of oligonucleotide but 0 μM SAM. All reagents were made up in 1× assay buffer (20 mM Tris pH 6.8, 25 mM NaCl, 0.5 mM MgCl2, 0.01% Triton X100 and 1 mM DTT). The reaction was incubated at 26° C. for 45 min and then stopped with the addition of 40 μl detection reagent. Detection reagent, made up in 1× Gla assay buffer (20 mM Tris pH 8.0, 80 mM NaCl, 0.75 mM MgCl2, 0.01% Triton X100 and 1 mM DTT) has a final concentration of 100 μM SAH (Sigma #A9384) and 0.0008 units/μl Gla1 restriction endonuclease (Sibenzyme #E494). Following addition of the detection reagent the plate was incubated in the dark at room temperature for 5 hr. Fluorescence intensity was then measured on the PHERAstar FS (BMG Labtech) at Ex 485 nm and Em 520 nm, with a gain of 400 and an integration time of 100 ms.

DNMT1 = DNMT1 (Homo sapiens, UniProt P26358); assay: DNMT1 biochemical activity, breaklight assay and/or SPA assay
Sequence of DNMT1 (P26358 whole entry, looked up): as the sequence (P26358 whole entry) above

human DNMT3a/3l = human DNMT3a/3l (Homo sapiens (Human), UniProt Q9Y6K1); assay: DNMT3a/3l breaklight assay; type: biochemical; settings: read-out: DNMT3A Breaklight IC50
Sequence of human DNMT3a/3l (Q9Y6K1 whole entry, looked up): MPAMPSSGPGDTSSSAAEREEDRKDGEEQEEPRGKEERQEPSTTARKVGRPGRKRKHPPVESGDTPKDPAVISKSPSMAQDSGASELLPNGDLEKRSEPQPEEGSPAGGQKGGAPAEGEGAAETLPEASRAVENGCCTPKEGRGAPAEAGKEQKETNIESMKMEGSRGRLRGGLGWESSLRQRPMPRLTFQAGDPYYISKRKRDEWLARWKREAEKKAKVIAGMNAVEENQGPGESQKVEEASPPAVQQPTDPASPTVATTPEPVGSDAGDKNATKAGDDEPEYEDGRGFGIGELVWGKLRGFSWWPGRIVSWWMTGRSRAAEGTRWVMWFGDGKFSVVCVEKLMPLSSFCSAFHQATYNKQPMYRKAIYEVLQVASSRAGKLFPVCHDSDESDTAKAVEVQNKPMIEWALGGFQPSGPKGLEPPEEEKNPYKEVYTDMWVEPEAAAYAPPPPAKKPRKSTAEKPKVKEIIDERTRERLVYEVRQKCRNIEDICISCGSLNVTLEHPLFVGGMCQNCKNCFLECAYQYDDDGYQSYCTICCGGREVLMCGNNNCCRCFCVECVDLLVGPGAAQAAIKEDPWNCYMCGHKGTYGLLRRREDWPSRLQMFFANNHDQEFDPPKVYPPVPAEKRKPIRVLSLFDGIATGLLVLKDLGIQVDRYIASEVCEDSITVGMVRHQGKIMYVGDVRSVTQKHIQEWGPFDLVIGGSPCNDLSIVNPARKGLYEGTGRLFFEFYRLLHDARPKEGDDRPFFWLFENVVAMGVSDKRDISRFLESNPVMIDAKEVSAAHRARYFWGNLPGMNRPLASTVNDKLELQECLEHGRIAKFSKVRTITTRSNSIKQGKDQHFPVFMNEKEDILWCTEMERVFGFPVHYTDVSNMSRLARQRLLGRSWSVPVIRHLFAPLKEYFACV
Sequence of human DNMT3a/3l (Q9UJW3 whole entry partner, looked up): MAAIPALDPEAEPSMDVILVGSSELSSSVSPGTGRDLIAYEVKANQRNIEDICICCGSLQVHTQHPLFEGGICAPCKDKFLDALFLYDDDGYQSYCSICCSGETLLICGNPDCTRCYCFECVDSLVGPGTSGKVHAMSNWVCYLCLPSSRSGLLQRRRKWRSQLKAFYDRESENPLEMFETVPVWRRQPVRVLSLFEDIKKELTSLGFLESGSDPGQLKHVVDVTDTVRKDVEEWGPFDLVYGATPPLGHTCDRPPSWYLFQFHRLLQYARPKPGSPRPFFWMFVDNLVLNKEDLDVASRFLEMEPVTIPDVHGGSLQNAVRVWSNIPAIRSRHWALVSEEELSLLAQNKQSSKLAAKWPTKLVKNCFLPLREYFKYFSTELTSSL
Protocol: DNMT3a/3l Breakliqht Assay
DNMT3a/3l breaklight in vitro assays were conducted in a total volume of 50 μl in a standard 384 well format, using black non-binding surface microplates (Corning #3575). […] Negative control wells used 5 μl of DNMT3a/3l and 5 μl of oligonucleotide but also included 200 μM SAH. All reagents were made up in 1× assay buffer (20 mM Tris pH 7.4, 100 mM NaCl, 1.5 mM EDTA, 0.1 mM MgCl2, 1 mM CHAPS and 1 mM DTT). The reaction was incubated at 37° C. for 90 min and then stopped with the addition of 40 μl detection reagent. Detection reagent, made up in 1× Gla assay buffer (20 mM Tris pH 8.0, 80 mM NaCl, 0.75 mM MgCl2, 0.01% Triton X100 and 1 mM DTT) has a final concentration of 200 μM SAH (Sigma #A9384) and 0.0008 units/μl Gla1 restriction endonuclease (Sibenzyme #E494). Following addition of the detection reagent the plate was incubated in the dark at room temperature for 5 hr. Fluorescence intensity was then measured on the PHERAstar FS (BMG Labtech) at Ex 485 nm and Em 520 nm, with a gain of 400 and an integration time of 100 ms.

DNMT3B = DNMT3B (Homo sapiens (Human), UniProt Q9UBC3); assay: DNMT3B breaklight assay; type: biochemical; settings: read-out: DNMT3B Breaklight IC50
[2] = binned activity in either the breaklight or the SPA assay
[3] = binned activity in either the breaklight or the SPA assay, read-out: DNMT1 BioChemical (pIC50 category) (converted)
[4] = breaklight assay and/or SPA assay, repeated experimental runs, read-out: average pIC50 against DNMT1 (converted)

| SMILES | EC50 [1] [nM] | IC50 (human full length DNMT1) [nM] | DNMT1 BioChemical (pIC50 category) (DNMT1; [2]) | IC50 (DNMT1; [3]) [nM] | IC50 (human DNMT3a/3l) [nM] | IC50 (DNMT3B) [nM] | IC50 (DNMT1; [4]) [nM] | average pIC50 against DNMT1 (DNMT1; breaklight assay and/or SPA assay, repeated experimental runs) |
| --- | --- | --- | --- | --- | --- | --- | --- | --- |
| CCN1CCCN(c2nc(SC(C(N)=O)c3ccccc3)c(C#N)c(C3CC3)c2C#N)CC1 (stereo not shown) [Example 5, 2-{[3,5-dicyano-4-cyclopropyl-6-(4-ethyl-1,4-diazepan-1-yl)pyridin-2-yl]sulfanyl}-2-phenylacetamide] | < 316 | ≤ 500 | D (Category D: ≥6.5) | – | – | – | – | – |
| CCc1c(C#N)c(SC(C(N)=O)c2ccccc2)nc(N(C)CCN2CCOCC2)c1C#N (stereo not shown) [Example 11, 2-[(3,5-dicyano-4-ethyl-6-{methyl[2-(morpholin-4-yl)ethyl]amino}pyridin-2-yl)sulfanyl]-2-phenylacetamide] | 316 to 1000 | 580 | – | 316 to 1000 | – | – | – | – |
| CCCN1CCN(c2nc(SC(C(N)=O)c3ccccc3)c(C#N)c(CC)c2C#N)CC1 (stereo not shown) [Example 12, 2-{[3,5-dicyano-4-ethyl-6-(4-propylpiperazin-1-yl)pyridin-2-yl]sulfanyl}-2-phenylacetamide] | 316 to 1000 | ≤ 500 | – | 316 to 1000 | – | – | – | – |
| N#Cc1c(SC(C(N)=O)c2ccccc2)nc(N2CCNC(=O)C2)c(C#N)c1C1CC1 (stereo not shown) [Example 15, 2-{[3,5-dicyano-4-cyclopropyl-6-(3-oxopiperazin-1-yl)pyridin-2-yl]sulfanyl}-2-phenylacetamide] | 1000 to 31600 | 440 | – | 316 to 1000 | – | – | – | – |
| CC1CN(c2nc(SC(C(N)=O)c3ccccc3)c(C#N)c(C3CC3)c2C#N)CC(C)N1 (stereo not shown) [Example 20] | < 316 | ≤ 500 | – | – | – | – | – | – |
| CC1CN(c2nc(SC(C(N)=O)c3ccccc3)c(C#N)c(C3CC3)c2C#N)CC(C)O1 (stereo not shown) [Example 21, 2-((3,5-Dicyano-4-cyclopropyl-6-(2,6-dimethylmorpholino)pyridin-2-yl)thio)-2-phenylacetamide] | 1000 to 31600 | > 750 | – | 316 to 1000 | – | – | – | – |
| CN1CCN(c2nc(SC(C(N)=O)c3ccccc3)c(C#N)c(C3CC3)c2C#N)CC1=O (stereo not shown) [Example 22] | < 316 | > 750 | – | 316 to 1000 | – | – | – | – |
| N#Cc1c(SC(C(N)=O)c2ccccc2)nc(N2CCCC(N)C2)c(C#N)c1C1CC1 (stereo not shown) [Example 25, 2-((6-(3-aminopiperidin-1-yl)-3,5-dicyano-4-cyclopropylpyridin-2-yl)thio)-2-phenylacetamide] | < 316 | ≤ 500 | D (Category D: ≥6.5) | – | – | – | – | – |
| N#Cc1c(SC(C(N)=O)c2ccccc2)nc(N2CCC(N)CC2)c(C#N)c1C1CC1 (stereo not shown) [Example 28, 2-((6-(4-aminopiperidin-1-yl)-3,5-dicyano-4-cyclopropylpyridin-2-yl)thio)-2-phenylacetamide] | < 316 | ≤ 500 | D (Category D: ≥6.5) | – | – | – | – | – |
| CCc1c(C#N)c(SC(C(N)=O)c2ccccc2)nc(N2CCC3(CCO3)C2)c1C#N (stereo not shown) [Example 36, 2-((3,5-Dicyano-4-ethyl-6-(1-oxa-6-azaspiro[3.4]octan-6-yl)pyridin-2-yl)thio)-2-phenylacetamide] | 1000 to 31600 | > 750 | D (Category D: ≥6.5) | – | – | – | – | – |
| CCc1c(C#N)c(SC(C(N)=O)c2ccccc2)nc(N(C)CCOC)c1C#N (stereo not shown) [Example 53, 2-((3,5-Dicyano-4-ethyl-6-((2-methoxyethyl)(methyl)amino)pyridin-2-yl)thio)-2-phenylacetamide] | 1000 to 31600 | – | – | 1000 to 31600 | > 500000 | > 500000 | – | – |
| CCc1c(C#N)c(SC(C(N)=O)c2ccccc2)nc(N2CCC(=O)CC2)c1C#N (stereo not shown) [Example 59, 2-((3,5-dicyano-4-ethyl-6-(4-oxopiperidin-1-yl)pyridin-2-yl)thio)-2-phenylacetamide] | 316 to 1000 | – | – | 316 to 1000 | > 500000 | > 500000 | – | – |
| CCc1c(C#N)c(SC(C(N)=O)c2ccccc2)nc(N2CCCN(CCOC)CC2)c1C#N (stereo not shown) [Example 106, 2-({3,5-Dicyano-4-ethyl-6-[4-(2-methoxyethyl)-1,4-diazepan-1-yl]pyridin-2-yl}sulfanyl)-2-phenylacetamide] | < 316 | – | D (Category D: ≥6.5) | – | > 500000 | > 500000 | – | – |
| CCc1c(C#N)c(SC(C(N)=O)c2ccccc2)nc(N2CCCN(CC(C)O)CC2)c1C#N (stereo not shown) [Example 107, 2-((3,5-dicyano-4-ethyl-6-(4-(2-hydroxypropyl)-1,4-diazepan-1-yl)pyridin-2-yl)thio)-2-phenylacetamide] | < 316 | – | D (Category D: ≥6.5) | – | > 500000 | > 500000 | – | – |
| CCc1c(C#N)c(SC(C(N)=O)c2ccccc2)nc(N2CCCNCC2)c1C#N (stereo not shown) [Example 112, 2-{[3,5-Dicyano-6-(1,4-diazepan-1-yl)-4-ethylpyridin-2-yl]sulfanyl}-2-phenylacetamide] | < 316 | – | D (Category D: ≥6.5) | – | > 500000 | > 500000 | – | – |
| CCc1c(C#N)c(SC(C(N)=O)c2ccccc2)nc(N2CCC3(CCCN(C)C3)CC2)c1C#N (stereo not shown) [Example 118, 2-((3,5-Dicyano-4-ethyl-6-(2-methyl-2,9-diazaspiro[5.5]undecan-9-yl)pyridin-2-yl)thio)-2-phenylacetamide] | < 316 | – | D (Category D: ≥6.5) | – | > 500000 | 124000 | – | – |
| CCc1c(C#N)c(SC(C(N)=O)c2ccccc2)nc(N2CCN(C(C)=O)CC2)c1C#N (stereo not shown) [Example 126, 2-((6-(4-Acetylpiperazin-1-yl)-3,5-dicyano-4-ethylpyridin-2-yl)thio)-2-phenylacetamide] | < 316 | – | – | 316 to 1000 | > 500000 | > 500000 | 316 to 1000 | – |
| CN(C)c1nc(SC(C(N)=O)c2ccccc2)c(C#N)c(C2CC2)c1C#N (stereo not shown) [Example 127, 2-((3,5-Dicyano-4-cyclopropyl-6-(dimethylamino)pyridin-2-yl)thio)-2-phenylacetamide] | 316 to 1000 | – | D (Category D: ≥6.5) | – | > 500000 | > 500000 | – | – |
| CCc1c(C#N)c(SC(C(N)=O)c2ccc(Cl)cc2)nc(N(C)C)c1C#N (stereo not shown) [Example 128, 2-(4-Chlorophenyl)-2-((3,5-dicyano-6-(dimethylamino)-4-ethylpyridin-2-yl)thio)acetamide] | 316 to 1000 | – | – | 316 to 1000 | > 500000 | > 500000 | – | – |
| CCc1c(C#N)c(SC(C(N)=O)c2ccccc2)nc(N2CCN(CCO)CC2)c1C#N (stereo not shown) [Example 129, 2-((3,5-Dicyano-4-ethyl-6-(4-(2-hydroxyethyl)piperazin-1-yl)pyridin-2-yl)thio)-2-phenylacetamide] | 1000 to 31600 | – | – | 316 to 1000 | > 500000 | > 500000 | ≥ 1000 | – |
| CCc1c(C#N)c(SC(C(N)=O)c2ccccc2)nc(N2CCC(C)(N)CC2)c1C#N (stereo not shown) [Example 136, 2-((6-(4-Amino-4-methylpiperidin-1-yl)-3,5-dicyano-4-ethylpyridin-2-yl)thio)-2-phenylacetamide] | < 316 | – | D (Category D: ≥6.5) | – | > 500000 | 379000 | – | > 6.5 |
